Test results published in patent US7517901B2, “p38 MAP kinase inhibitors and methods for using the same” (Roche Palo Alto LLC, priority 2005, dated 2009).

How the values were obtained:
[1] = biological target: T1, p38 MAP kinase (Homo sapiens, UniProt Q16539); experiment: p38 (MAP) kinase in vitro assay (transfer of γ-33P from ATP to Myelin Basic Protein); assay type: biochemical; conditions: phosphorylated recombinant p38 MAP kinase, MBP substrate, γ-33P-ATP, 30° C.
T1 construct: made in house; host or cells: E. coli (co-expressed with SEK-1 and MEKK)
Procedure: This example illustrates a p38 (MAP) kinase in vitro assay useful for evaluating the compounds of the invention.
The p38 MAP kinase inhibitory activity of compounds of this invention in vitro was determined by measuring the transfer of the γ-phosphate from γ-^33P-ATP by p-38 kinase to Myelin Basic Protein (MBP), using a minor modification of the method described in Ahn, et al., J. Biol. Chem. 266:4220-4227 (1991).
The phosphorylated form of the recombinant p38 MAP kinase was co-expressed with SEK-1 and MEKK in E. Coli (see, Khokhlatchev, et al., J. Biol. Chem. 272:11057-11062 (1997)) and then purified by affinity chromatography using a Nickel column.
The phosphorylated p38 MAP kinase was diluted in kinase buffer (20 mM 3-(N-morpholino)propanesulfonic acid, pH 7.2, 25 mM β-glycerol phosphate, 5 mM ethylene glycol-bis(beta-aminoethyl ether)-N,N,N′,N′-tetraacetic acid, 1 mM sodium ortho-vanadate, 1 mM dithiothreitol, 40 mM magnesium chloride). Test compound dissolved in DMSO or only DMSO (control) was added and the samples were incubated for 10 min at 30° C. The kinase reaction was initiated by the addition of a substrate cocktail containing MBP and γ-^33P-ATP. […] The phosphorylated MBP was then separated from the residual γ-^33P-ATP using a phosphocellulose membrane (Millipore, Bedford, Mass.) and quantitated using a scintillation counter (Packard, Meriden, Conn.).

T1 sequence (Q16539 whole entry): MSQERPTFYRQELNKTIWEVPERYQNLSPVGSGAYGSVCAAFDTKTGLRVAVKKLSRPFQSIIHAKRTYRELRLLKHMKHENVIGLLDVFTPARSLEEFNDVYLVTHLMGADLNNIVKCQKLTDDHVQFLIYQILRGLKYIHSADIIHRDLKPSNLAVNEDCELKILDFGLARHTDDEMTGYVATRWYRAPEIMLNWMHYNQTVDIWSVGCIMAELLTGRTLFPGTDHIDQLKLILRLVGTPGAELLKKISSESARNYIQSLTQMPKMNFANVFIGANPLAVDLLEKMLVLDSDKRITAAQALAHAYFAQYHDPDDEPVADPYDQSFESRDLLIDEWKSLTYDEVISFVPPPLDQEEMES

melting point | IC50 [1] | SMILES
187 to 189 °C | – | O=S(=O)(Nc1ccc2c(-c3ccccc3Cl)n[nH]c2c1)c1cccc(Cl)c1 [Compound 12, 3-Chloro-N-[3-(2-chloro-phenyl)-1H-indazol-6-yl]-benzenesulfonamide]
– | ~20 nM | O=S(=O)(Nc1ccc2c(-c3ccccc3Cl)n[nH]c2c1)c1cccc(Cl)c1F [Compound 46, 3-Chloro-N-[3-(2-chloro-phenyl)-1H-indazol-6-yl]-2-fluoro-benzenesulfonamide]
